This note sets out measurements from US6384040B1, “Condensed 4-thioxopyrimidine derivatives as microbicides” (Syngenta Crop Protection, Inc., priority 1998, dated 2002).

One data set deals with Uncinula necator. Kind of data set: Action against Uncinula necator on vines. The data set is classed as in vivo. Conditions: vine cuttings sprayed with 200 ppm a.i., infected 24 hours later, evaluation ca. 14 days after infection. Here is the method: Example B-3: Action Against Uncinula necator on Vines
5 week old vine cuttings are sprayed with a spray mixture (200 ppm a.i.) prepared from a wettable powder formulation of the test compound. The plants are infected 24 hours later by conidias from strongly infested vine leafs that are shaken off over the test plants. The plants are then incubated at 26° C. and 60% relative humidity. The evaluation of the fungal infestation is made ca. 14 days after infection.

On to `CCCOc1nc2sc(Cl)cc2c(=S)n1CCC` [Compound 1, 6-Chloro-2-propoxy-3-propyl-4-thioxo-thieno[2,3-d]pyrimidine], for which the control activity entry with Uncinula necator is “complete control activity”.
As usually defined, the melting point is the temperature of the solid-liquid transition. As to `CCCOc1nc2sc(Br)cc2c(=S)n1CCC` [Compound 2, 6-bromo-2-propoxy-3-propyl-4-thioxo-thieno[2,3-d]pyrimidine], the melting point was in the range of 110 to 112 °C. Moreover, the control activity entry in the data set with Uncinula necator is “complete control activity”.
The corresponding values for `CCCCn1c(OCCC)nc2sc(Cl)cc2c1=S` [Compound 3, 3-butyl-6-chloro-2-propoxy-4-thioxo-thieno[2,3-d]pyrimidine] are 68 to 70 °C and “complete control activity”.
For `CCCCn1c(OCCC)nc2sc(Br)cc2c1=S` [Compound 4, 6-bromo-3-butyl-2-propoxy-4-thioxo-thieno[2,3-d]pyrimidine] the same measures were 95 to 97 °C and “complete control activity”.
